Test results as given in publication PMC9698340, “Discovery and SAR Study of Quinoxaline–Arylfuran Derivatives as a New Class of Antitumor Agents” (Pharmaceutics, 2022).

Columns and labels:
recombinant STAT3 = recombinant STAT3 (Homo sapiens, UniProt P40763); assay: Biolayer interferometry (BLI) assay; conditions: His-tagged STAT3 on SSA biosensors, QW12 5.2 to 333 μM, read-out: binding affinity (KD) to STAT3
Procedure: BLI assays were performed using the BLItz system (Sartorius). Biosensors were first equilibrated 10 min in 1X kinetic buffer (Sartorius) consisting of PBS with 0.02% Tween20 and 0.1% BSA. Subsequently, depending on the assay, STAT3 was loaded onto the corresponding biosensor at a concentration of 1.9 µg/µL, as indicated in the Sartorius biosensor datasheets, for an appropriate time interval. The concentration range for the associating protein was chosen, when possible, based on the KD value available from the literature or experimentally determined for all scenarios wherein KD values were unknown. The data recorded were analyzed by means of the BLItz software and MATLAB to extrapolate the kinetic parameters. All association and dissociation curves were fitted by a single exponential function. Each acquisition was repeated twice to confirm reproducibility.
To confirm whether QW12 is a direct STAT3 inhibitor, a BLI (biolayer interferometry) analysis was performed. Briefly, recombinant STAT3 with a His tag was immobilized on SSA biosensors, and the dissociation constants were determined by measuring the binding to serial dilutions of QW12 at concentrations ranging from 5.2 to 333 μM (Figure 9A).

HeLa cells [1] = assay: CCK-8 antiproliferation assay, HeLa; assay type: cell-based; conditions: Homo sapiens, 48 h
Procedure: (§1) Human lung carcinoma cell lines A549, human cervical cancer cell lines HeLa, human prostate cancer cell lines PC3, human colorectal carcinoma cell lines HCT116, and human liver cells L02 were purchased from the Chinese Academy of Sciences Shanghai Cell Bank (Shanghai, China). HeLa, A549, PC3, HCT116, and L02 cells were cultured in DMEM Dulbecco’s Modified Eagle Medium (DMEM; Gibco Inc., Gaithersburg, MD, USA). All cultures were provided with 10% fetal bovine serum (FBS; YHSM, Beijing, China), 100 IU/mL penicillin, and 100 μg/mL streptomycin, and cells were incubated at 37 °C in an atmosphere of 5% CO2.
(§2) Cell viability was determined using a CCK-8 kit (Apexbio, Houston, TX, USA). […] Subsequently, absorbance was assessed at 450 nm. Three duplicates were set in each group.
(§3) All synthesized quinoxalines compounds were tested for in vitro cytotoxicity against four cancer cell lines (HeLa, PC3, A549, and HCT116). The inhibitory effects of these compounds were evaluated using the CCK-8 assay after treatment with 20 μM of each compound. […] The species of phenyl substituents have a significant effect on the activity. […] By comparison, hydrophobic substitution at the phenyl ring gave derivatives with relatively low potency (QW7–8). In addition, large substituents on the phenyl ring exerted an unfavorable influence on the potency of the compounds (QW8 and QW16).

L02 cells = assay: CCK-8 cytotoxicity against normal hepatocytes L02; assay type: cell-based; conditions: Homo sapiens, 48 h, read-out: IC50 ± SD, L02 (human normal hepatocytes)
Procedure: as §1, §2
To further evaluate the anticancer effect of QW12, we evaluated its cytotoxicity against four human cancer cell lines: HeLa (Human cervical tumor), PC3 (Human prostate tumor), HCT116 (Human colorectal carcinomas), and A549 (Human lung carcinoma). […] Furthermore, the IC50 values of QW12 against PC3 and HCT116 were similar to those of nifuroxazide.

PC3 cells = assay: CCK-8 antiproliferation assay, PC3; assay type: cell-based; conditions: Homo sapiens, PC-3, 48 h
Procedure: as §1, §2, §3

HeLa cells [2] = assay: Hoechst-33342 staining; assay type: cell-based, human; conditions: 24 h, vs control
Procedure: HeLa cells (4 × 10^5 cells) were incubated in a 6-well plate for 12 h. The cells were then treated with QW12 at the indicated concentrations for 24 h. The cells were washed twice with PBS. The cells were then incubated with Hoechst-33342 (10 μg/mL) for 5 min at room temperature in darkness. After incubation, stained cells were observed under an inverted phase contrast microscope (OLYMPUS IX73, Tokyo, Japan).

HeLa cells [3] = assay: Annexin V-FITC/PI apoptosis assay, flow cytometry; assay type: cell-based, human; conditions: control 3.5%
Procedure: For the Annexin V apoptosis assay, cells were collected at the end of the treatment, washed with cold PBS, and stained with the PI/Annexin V-FITC apoptosis kit (4A Biotech Co., Ltd., Beijing, China) following the manufacturer’s instructions. All flow cytometric analyses were performed at the Tianfu Science and Technology Park Molecular and Cell Platform in the West China Hospital.

HeLa cells [4] = assay: Colony formation (plate-cloning) assay; assay type: cell-based, human; conditions: different concentrations, 24 h treatment
Procedure: HeLa cells were digested and seeded directly in 6-well plates (1 × 10^3 cells/well) for the colony-formation assay and cultured in the presence of 10% FBS and 1% penicillin/streptomycin at 37 °C with 5% CO2 for 12 h in confluent cell monolayers. The cells were then treated with QW12 at the indicated concentrations for 24 h. Two weeks later, the medium was removed, and the plates were washed with phosphate-buffered saline (PBS) three times. Cells were fixed with anhydrous ethanol for 30 min and then stained with Giemsa dye solution (Solarbio) for 30 min. The plates were dried with a blower to ensure high-quality images were obtained. Colonies were defined as >50 cells/colony.

Sequence of recombinant STAT3 (P40763 whole entry, species assumed): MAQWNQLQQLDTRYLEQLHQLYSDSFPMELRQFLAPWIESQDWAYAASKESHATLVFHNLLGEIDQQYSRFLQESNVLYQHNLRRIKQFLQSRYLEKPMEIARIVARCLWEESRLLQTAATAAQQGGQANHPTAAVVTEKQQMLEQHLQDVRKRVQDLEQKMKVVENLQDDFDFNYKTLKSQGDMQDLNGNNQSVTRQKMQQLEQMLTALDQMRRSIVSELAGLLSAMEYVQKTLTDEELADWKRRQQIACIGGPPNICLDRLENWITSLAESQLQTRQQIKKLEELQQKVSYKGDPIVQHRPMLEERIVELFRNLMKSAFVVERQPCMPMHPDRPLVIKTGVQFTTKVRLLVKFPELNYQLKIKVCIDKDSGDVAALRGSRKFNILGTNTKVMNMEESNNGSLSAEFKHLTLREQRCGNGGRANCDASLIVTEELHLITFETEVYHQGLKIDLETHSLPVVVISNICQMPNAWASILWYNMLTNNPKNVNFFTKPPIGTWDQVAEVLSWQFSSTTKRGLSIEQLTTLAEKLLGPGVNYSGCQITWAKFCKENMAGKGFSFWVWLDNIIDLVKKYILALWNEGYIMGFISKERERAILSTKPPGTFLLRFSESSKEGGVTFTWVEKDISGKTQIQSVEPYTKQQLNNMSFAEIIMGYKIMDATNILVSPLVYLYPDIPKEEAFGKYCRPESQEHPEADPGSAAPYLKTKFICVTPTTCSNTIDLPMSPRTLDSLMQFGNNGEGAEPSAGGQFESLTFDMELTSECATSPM

COc1cc(-c2ccc(/C=N/NC(=O)c3ccc(O)cc3)o2)c(OC)cc1-c1ccc2nccnc2c1 [QW12, (E)-N’-((5-(2,5-dimethoxy-4-(quinoxalin-6-yl)phenyl)furan-2-yl)methylene)-4-hydroxybenzohydrazide]
Kd (recombinant STAT3): 67.3 µM
IC50 (HeLa cells [1]; HeLa, CCK-8, read-out: IC50 ± SD, HeLa): 10.58 ± 0.1 µM
inhibition at 20 µM (HeLa cells [1]; 20 μM, CCK-8, mean ± SD, read-out: Inhibition Rate (%) at 20 μM, HeLa): 76.35 ± 0.11%
IC50 (L02 cells): > 50 µM
inhibition at 20 µM (PC3 cells; 20 μM, CCK-8, mean ± SD, read-out: Inhibition Rate (%) at 20 μM, PC3): 52.55 ± 0.47%
IC50 (PC3 cells; CCK-8, read-out: IC50 ± SD, PC3): 12.7 ± 0.57 µM
nuclear morphology (Hoechst staining) (HeLa cells [2]): significant apoptotic morphological characteristics were observed
cell apoptosis rate (HeLa cells [3]; 10 μM): 13.9%
cell apoptosis rate (HeLa cells [3]; 40 μM): 34.7%
effect on proliferation in plate-cloning assay (HeLa cells [4]): proliferated at a significantly lower rate than the control
